The record followed here is ChEMBL document CHEMBL1201862, “PubChem BioAssay data set” (2004).

Each structure is given as a SMILES string.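 Briefly, cells in 96-well plates were exposed to five compound concentrations for 48 h, and endpoints were estimated by linear interpolation. GI50: concentration for 50% inhibition of growth.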 Active and inactive are the calls of the source. Rule as the data show it: active = GI50 up to about 1.1 µM and inactive = higher. Where only a bound is given, the exact number is not on record here.

Test systems include SK-MEL-5; Malme-3M; A549; UACC-62; IGROV-1; MOLT-4; SNB-19; UACC-257; HCT-116; SF-295; SW-620; HL-60; SN12C; SK-MEL-2; MCF7; HOP-62; RPMI-8226; CCRF-CEM; HCT-15; KM12.
Holding throughout (assay): NCI tumour cell line growth inhibition, 48 h

For `COc1cccc2c1C(=O)c1c(O)c3c(c(O)c1C2=O)CC(O)(C(C)=O)CC3O` (stereo not given), the GI50 was 2.16 µM (inactive) in the assay on SK-MEL-5; 4.56 µM (inactive) in the assay with Malme-3M; 6.55 µM (inactive) with A549; 5.58 µM (inactive) in the assay on UACC-62; 3.44 µM (inactive) with IGROV-1; 1.98 µM (inactive) with MOLT-4. For the same compound, the GI50 with SNB-19 was 6.03 µM (inactive); with UACC-257 it was 10.6 µM (inactive); in the assay on HCT-116 it was 2.41 µM (inactive); in the assay with SF-295, 5.73 µM (inactive); in the assay with SW-620, 2.33 µM (inactive); in the assay on HL-60, 3.6 µM (inactive). In addition, the GI50 with SN12C was 3.8 µM (inactive); with SK-MEL-2, 8.07 µM (inactive); in the assay with MCF7, 1.01 µM (active); in the assay on HOP-62, 2.14 µM (inactive); with RPMI-8226, 2.18 µM (inactive); in the assay with CCRF-CEM, 1.88 µM (inactive). The GI50 was 9.23 µM in the assay on HCT-15 and 6.17 µM (inactive) with KM12.

For `CCCCCCCC/C=C\CCCCCCCC(=O)O` [OLEIC ACID], the GI50 with SK-MEL-5 was > 212 µM (inactive); in the assay with Malme-3M, > 500 µM (inactive); with A549, 109 µM (inactive); in the assay with UACC-62, 180 µM (inactive); in the assay with IGROV-1, 178 µM (inactive); in the assay with MOLT-4, 148 µM (inactive). Further, the GI50 with SNB-19 was 143 µM (inactive); in the assay with UACC-257 it was 105 µM (inactive); in the assay on HCT-116 it was 114 µM (inactive); with SF-295, 99.1 µM (inactive); with SW-620 it was 140 µM (inactive); in the assay on HL-60 it was 126 µM (inactive). Moreover, the GI50 in the assay on SN12C was 51.6 µM (inactive); in the assay on SK-MEL-2 it was 206 µM (inactive); in the assay on MCF7, 104 µM (inactive); with HOP-62 it was > 500 µM (inactive); with RPMI-8226, 91.6 µM (inactive); in the assay on CCRF-CEM, 99.8 µM (inactive). Besides, the GI50 was 177 µM with HCT-15 and 240 µM (inactive) in the assay on KM12.

In the case of `CN(C)C(=O)/C=C/c1c[nH]c(=O)[nH]c1=O`, the GI50 with SK-MEL-5, in the assay on Malme-3M, in the assay with A549, with UACC-62, in the assay with IGROV-1 and in the assay on MOLT-4 was > 500 µM (inactive) throughout. Moreover, the GI50 with SNB-19 is > 500 µM (inactive); in the assay on UACC-257, > 500 µM (inactive); in the assay on HCT-116, > 500 µM (inactive); with SF-295, > 500 µM (inactive); in the assay with SW-620 it was > 500 µM (inactive); in the assay with HL-60, 296 µM (inactive). Moreover, the GI50 is > 500 µM (inactive) with SN12C; > 500 µM (inactive) in the assay with SK-MEL-2; > 500 µM (inactive) with MCF7; > 500 µM (inactive) with HOP-62; > 316 µM (inactive) in the assay on RPMI-8226; > 500 µM (inactive) in the assay with CCRF-CEM. In addition, the GI50 is over 500 µM in the assay on HCT-15 and > 500 µM (inactive) in the assay on KM12.
